Assays:
[1] = Highest frequency of moderate liver toxicity observed during clinical trials, expressed as a percentage. [column '% BIOL' in source]; details: human
[2] = Highest frequency of acute liver toxicity observed during clinical trials, expressed as a percentage. [column '% AIGUE' in source]; details: human
[3] = human, serum
[4] = human, serum; remark: listed apart in the source
[5] = human
[6] = human; remark: listed apart in the source
[7] = human; remark: listed apart in the source
[8] = human, serum, 4383 h
[9] = human; remark: listed apart in the source
[10] = human; remark: listed apart in the source
[11] = human; remark: listed apart in the source
[12] = human; remark: listed apart in the source
[13] = human; remark: listed apart in the source
[14] = human; remark: listed apart in the source
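Throughout, for Hepatotoxicity (association with vascular disease): count of indexed literature references reporting vascular liver injury in humans, e.g. peliosis hepatitis, hepatic veno-occlusive disease or Budd-Chiari syndrome.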
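Throughout, for Hepatotoxicity (benign tumour): value is a count of indexed literature references citing a benign tumour confirmed by histopathology.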
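Throughout, for Hepatotoxicity (choleostasis): human cholestatic liver injury, shown by histopathology or by peak ALT or AST elevation over alkaline phosphatase ratio below 2, value counts indexed literature reports.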
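Throughout, for Hepatotoxicity (chronic liver disease): chronic liver injury confirmed by histopathology or persistently raised serum aminotransferase activity beyond 6 months, value given as the count of indexed literature references.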
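Throughout, for Hepatotoxicity (cirrhosis): value is a count of indexed literature references reporting cirrhosis confirmed by histopathology.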
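Throughout, for Hepatotoxicity (cytolytic): human cytolytic liver injury, shown by histopathology or by a ratio above 5 of peak ALT or AST elevation to alkaline phosphatase elevation, value counts indexed references.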
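Throughout, for Hepatotoxicity (granulomatous hepatitis): value is a count of indexed literature references reporting granulomatous liver disease confirmed by histopathology.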
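Throughout, for Hepatotoxicity (malignant tumour): malignant tumour confirmed by histopathology, value gives the count of indexed literature references reporting it.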
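Throughout, for Hepatotoxicity (severe hepatitis): human clinical data: severe hepatitis, meaning potentially life-threatening liver failure or clinically observed cases, the value counts how many indexed literature references report it.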
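Throughout, for Hepatotoxicity (steatosis): steatosis confirmed by histopathology, value is the count of indexed references.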

## C[C@H]([C@](O)(Cn1cncn1)c1ccc(F)cc1F)S(C)(=O)=O [GENACONAZOLE]
[1]
  Hepatotoxicity (moderate): 33.3%
[2]
  Hepatotoxicity (acute): 0%
[3]
  Hepatotoxicity (moderate): 1
[4]
  Hepatotoxicity (acute): 0
[5]
  Hepatotoxicity (cytolytic): 0
[6]
  Hepatotoxicity (choleostasis): 0
[7]
  Hepatotoxicity (severe hepatitis): 0
[8]
  Hepatotoxicity (chronic liver disease): 0
[9]
  Hepatotoxicity (cirrhosis): 0
[10]
  Hepatotoxicity (granulomatous hepatitis): 0
[11]
  Hepatotoxicity (association with vascular disease): 0
[12]
  Hepatotoxicity (steatosis): 0
[13]
  Hepatotoxicity (malignant tumour): 0
[14]
  Hepatotoxicity (benign tumour): 0

## CC1(C)CC(=O)N(CCCCN2CCN(c3ncccn3)CC2)C(=O)C1 [GEPIRONE]
[1]
  Hepatotoxicity (moderate): 3.3%
[2]
  Hepatotoxicity (acute): 0%
[3]
  Hepatotoxicity (moderate): 1
[4]
  Hepatotoxicity (acute): 0
[5]
  Hepatotoxicity (cytolytic): 0
[6]
  Hepatotoxicity (choleostasis): 0
[7]
  Hepatotoxicity (severe hepatitis): 0
[8]
  Hepatotoxicity (chronic liver disease): 0
[9]
  Hepatotoxicity (cirrhosis): 0
[10]
  Hepatotoxicity (granulomatous hepatitis): 0
[11]
  Hepatotoxicity (association with vascular disease): 0
[12]
  Hepatotoxicity (steatosis): 0
[13]
  Hepatotoxicity (malignant tumour): 0
[14]
  Hepatotoxicity (benign tumour): 0

## C#C[C@]1(O)CC[C@H]2[C@@H]3CCC4=CC(=O)CCC4=C3C=C[C@@]21CC [GESTRINONE]
[1]
  Hepatotoxicity (moderate): 0.8%
[2]
  Hepatotoxicity (acute): 0%
[3]
  Hepatotoxicity (moderate): 1
[4]
  Hepatotoxicity (acute): 0
[5]
  Hepatotoxicity (cytolytic): 0
[6]
  Hepatotoxicity (choleostasis): 0
[7]
  Hepatotoxicity (severe hepatitis): 0
[8]
  Hepatotoxicity (chronic liver disease): 0
[9]
  Hepatotoxicity (cirrhosis): 0
[10]
  Hepatotoxicity (granulomatous hepatitis): 0
[11]
  Hepatotoxicity (association with vascular disease): 0
[12]
  Hepatotoxicity (steatosis): 0
[13]
  Hepatotoxicity (malignant tumour): 0
[14]
  Hepatotoxicity (benign tumour): 0

## Cc1cc(C(=O)NCCc2ccc(S(=O)(=O)NC(=O)NN3CCCCCC3)cc2)no1 [GLISOXEPIDE]
[1]
  Hepatotoxicity (moderate): 0%
[2]
  Hepatotoxicity (acute): 0%
[3]
  Hepatotoxicity (moderate): 1
[4]
  Hepatotoxicity (acute): 0
[5]
  Hepatotoxicity (cytolytic): 0
[6]
  Hepatotoxicity (choleostasis): 0
[7]
  Hepatotoxicity (severe hepatitis): 0
[8]
  Hepatotoxicity (chronic liver disease): 0
[9]
  Hepatotoxicity (cirrhosis): 0
[10]
  Hepatotoxicity (granulomatous hepatitis): 0
[11]
  Hepatotoxicity (association with vascular disease): 0
[12]
  Hepatotoxicity (steatosis): 0
[13]
  Hepatotoxicity (malignant tumour): 0
[14]
  Hepatotoxicity (benign tumour): 0

## CC(C)C[C@H](NC(=O)[C@@H](COC(C)(C)C)NC(=O)[C@H](Cc1ccc(O)cc1)NC(=O)[C@H](CO)NC(=O)[C@H](Cc1c[nH]c2ccccc12)NC(=O)[C@H](Cc1cnc[nH]1)NC(=O)[C@@H]1CCC(=O)N1)C(=O)N[C@@H](CCCNC(=N)N)C(=O)N1CCC[C@H]1C(=O)NNC(N)=O [GOSERELIN]
[1]
  Hepatotoxicity (moderate): 7.8%
[2]
  Hepatotoxicity (acute): 0%
[3]
  Hepatotoxicity (moderate): 5
[4]
  Hepatotoxicity (acute): 0
[5]
  Hepatotoxicity (cytolytic): 0
[6]
  Hepatotoxicity (choleostasis): 0
[7]
  Hepatotoxicity (severe hepatitis): 1
[8]
  Hepatotoxicity (chronic liver disease): 0
[9]
  Hepatotoxicity (cirrhosis): 0
[10]
  Hepatotoxicity (granulomatous hepatitis): 0
[11]
  Hepatotoxicity (association with vascular disease): 0
[12]
  Hepatotoxicity (steatosis): 0
[13]
  Hepatotoxicity (malignant tumour): 0
[14]
  Hepatotoxicity (benign tumour): 0

## Cc1cc2c(C(C)C)c(O)c(O)c(C=O)c2c(O)c1-c1c(C)cc2c(C(C)C)c(O)c(O)c(C=O)c2c1O [GOSSYPOL]
[1]
  Hepatotoxicity (moderate): 93%
[2]
  Hepatotoxicity (acute): 0%
[3]
  Hepatotoxicity (moderate): 1
[4]
  Hepatotoxicity (acute): 0
[5]
  Hepatotoxicity (cytolytic): 0
[6]
  Hepatotoxicity (choleostasis): 0
[7]
  Hepatotoxicity (severe hepatitis): 0
[8]
  Hepatotoxicity (chronic liver disease): 0
[9]
  Hepatotoxicity (cirrhosis): 0
[10]
  Hepatotoxicity (granulomatous hepatitis): 0
[11]
  Hepatotoxicity (association with vascular disease): 0
[12]
  Hepatotoxicity (steatosis): 0
[13]
  Hepatotoxicity (malignant tumour): 0
[14]
  Hepatotoxicity (benign tumour): 0

## Cc1c(F)c(N2CCNC(C)C2)cc2c1c(=O)c(C(=O)O)cn2C1CC1 (stereo not drawn) [GREPAFLOXACIN]
[1]; Liver
  Hepatotoxicity (moderate): 14.3%
[2]; Liver
  Hepatotoxicity (acute): 0%
[3]
  Hepatotoxicity (moderate): 22
[4]
  Hepatotoxicity (acute): 0
[5]; Liver
  Hepatotoxicity (cytolytic): 0
[6]; Liver
  Hepatotoxicity (choleostasis): 0
[7]; Liver
  Hepatotoxicity (severe hepatitis): 0
[8]
  Hepatotoxicity (chronic liver disease): 0
[9]
  Hepatotoxicity (cirrhosis): 0
[10]; Liver
  Hepatotoxicity (granulomatous hepatitis): 0
[11]
  Hepatotoxicity (association with vascular disease): 0
[12]
  Hepatotoxicity (steatosis): 0
[13]
  Hepatotoxicity (malignant tumour): 0
[14]
  Hepatotoxicity (benign tumour): 0

## CCCCN(CCCC)CCC(O)c1cc2c(Cl)cc(Cl)cc2c2cc(C(F)(F)F)ccc12 (stereo not drawn) [HALOFANTRINE]
[1]
  Hepatotoxicity (moderate): 29%
[2]
  Hepatotoxicity (acute): 0%
[3]
  Hepatotoxicity (moderate): 8
[4]
  Hepatotoxicity (acute): 0
[5]
  Hepatotoxicity (cytolytic): 0
[6]
  Hepatotoxicity (choleostasis): 0
[7]
  Hepatotoxicity (severe hepatitis): 0
[8]
  Hepatotoxicity (chronic liver disease): 0
[9]
  Hepatotoxicity (cirrhosis): 0
[10]
  Hepatotoxicity (granulomatous hepatitis): 0
[11]
  Hepatotoxicity (association with vascular disease): 0
[12]
  Hepatotoxicity (steatosis): 0
[13]
  Hepatotoxicity (malignant tumour): 0
[14]
  Hepatotoxicity (benign tumour): 0

## CC(=O)NCCOC(=O)C(Oc1cccc(C(F)(F)F)c1)c1ccc(Cl)cc1 (stereo not drawn) [HALOFENATE]
[1]
  Hepatotoxicity (moderate): 0%
[2]
  Hepatotoxicity (acute): 0%
[3]
  Hepatotoxicity (moderate): 1
[4]
  Hepatotoxicity (acute): 0
[5]
  Hepatotoxicity (cytolytic): 0
[6]
  Hepatotoxicity (choleostasis): 0
[7]
  Hepatotoxicity (severe hepatitis): 0
[8]
  Hepatotoxicity (chronic liver disease): 0
[9]
  Hepatotoxicity (cirrhosis): 0
[10]
  Hepatotoxicity (granulomatous hepatitis): 0
[11]
  Hepatotoxicity (association with vascular disease): 0
[12]
  Hepatotoxicity (steatosis): 0
[13]
  Hepatotoxicity (malignant tumour): 0
[14]
  Hepatotoxicity (benign tumour): 0

## O=C(NCCN1CCC(n2c(=O)[nH]c3cc(Cl)ccc32)CC1)c1ccc(F)cc1 [HALOPEMIDE]
[1]
  Hepatotoxicity (moderate): 27%
[2]
  Hepatotoxicity (acute): 0%
[3]
  Hepatotoxicity (moderate): 1
[4]
  Hepatotoxicity (acute): 0
[5]
  Hepatotoxicity (cytolytic): 0
[6]
  Hepatotoxicity (choleostasis): 0
[7]
  Hepatotoxicity (severe hepatitis): 0
[8]
  Hepatotoxicity (chronic liver disease): 0
[9]
  Hepatotoxicity (cirrhosis): 0
[10]
  Hepatotoxicity (granulomatous hepatitis): 0
[11]
  Hepatotoxicity (association with vascular disease): 0
[12]
  Hepatotoxicity (steatosis): 0
[13]
  Hepatotoxicity (malignant tumour): 0
[14]
  Hepatotoxicity (benign tumour): 0

## CC1(C)S[C@@H]2[C@H](N3C(=O)[C@@H](c4ccccc4)NC3(C)C)C(=O)N2[C@H]1C(=O)O [HETACILLIN]
[1]
  Hepatotoxicity (moderate): 0%
[2]
  Hepatotoxicity (acute): 0%
[3]
  Hepatotoxicity (moderate): 0
[4]
  Hepatotoxicity (acute): 1
[5]
  Hepatotoxicity (cytolytic): 1
[6]
  Hepatotoxicity (choleostasis): 0
[7]
  Hepatotoxicity (severe hepatitis): 0
[8]
  Hepatotoxicity (chronic liver disease): 0
[9]
  Hepatotoxicity (cirrhosis): 0
[10]
  Hepatotoxicity (granulomatous hepatitis): 0
[11]
  Hepatotoxicity (association with vascular disease): 0
[12]
  Hepatotoxicity (steatosis): 0
[13]
  Hepatotoxicity (malignant tumour): 0
[14]
  Hepatotoxicity (benign tumour): 0

## CC(=O)NCCCCCCNC(C)=O [HEXAMETHYLENEBISACETAMIDE]
[1]
  Hepatotoxicity (moderate): 0%
[2]
  Hepatotoxicity (acute): 0%
[3]
  Hepatotoxicity (moderate): 0
[4]
  Hepatotoxicity (acute): 1
[5]
  Hepatotoxicity (cytolytic): 1
[6]
  Hepatotoxicity (choleostasis): 0
[7]
  Hepatotoxicity (severe hepatitis): 0
[8]
  Hepatotoxicity (chronic liver disease): 0
[9]
  Hepatotoxicity (cirrhosis): 0
[10]
  Hepatotoxicity (granulomatous hepatitis): 0
[11]
  Hepatotoxicity (association with vascular disease): 0
[12]
  Hepatotoxicity (steatosis): 0
[13]
  Hepatotoxicity (malignant tumour): 0
[14]
  Hepatotoxicity (benign tumour): 0
